Consider 8 compounds from ChEMBL document CHEMBL1201862, “PubChem BioAssay data set” (2004).

The source made the active and inactive calls.

One assay deals with Cysteine protease ATG4B (Homo sapiens, UniProt Q9Y4P1). Type of assay: functional.
For another assay, the target named is Phospholipase A2 (Homo sapiens, UniProt P04054). Type of assay: functional.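 Further: confirmatory dose-response counterscreen on phospholipase A2, testing hits that came from an ultra-high-throughput screen for ATG4B inhibitors.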
A short description of assay [1]: NIH-3T3 fibroblast cytotoxicity, dose response, cytotoxicity control, cell-based, fluorescence, Alamar Blue, secondary assay (AID 2327).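 Further: NIH-3T3 mouse fibroblasts cultured with fluconazole at 8 µg/mL.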 Type of assay: functional.
Assay [2] can be described thus: fluconazole-exposed Candida albicans growth modulators – fluorescence, retest, confirmation (AID 2467). Type of assay: functional, cell-based.
Assay [3] concerns the target DNA dC->dU-editing enzyme APOBEC-3A (Homo sapiens, UniProt P31941). Kind of assay: A3A deaminase inhibition for selectivity – biochemical, dose response (AID 504722). Type of assay: functional.
Assay [4] addresses DNA dC->dU-editing enzyme APOBEC-3G (Homo sapiens, UniProt Q9HC16). Kind of assay: Dose Response confirmation of small molecule APOBEC3G DNA Deaminase Inhibitors via a fluorescence-based single-stranded DNA deaminase assay. [Related pubchem assays (depositor defined):AID493012, AID493028]. Type of assay: functional.
Assay [5] deals with Glucose-6-phosphate 1-dehydrogenase (Homo sapiens, UniProt P11413). Kind of assay: inhibition of Homo sapiens G6PD, dose series – biochemical, fluorescence, selectivity assay for P. falciparum G6PD inhibitor project, dose response (AID 504792). Type of assay: functional.
Assay [6] has as its target Peroxisome proliferator-activated receptor gamma/Nuclear receptor coactivator 1 (Homo sapiens, UniProt P37231). In words: TR-FRET dose response biochemical High Throughput Screening assay for agonists of the steroid receptor coactivator 1 (SRC-1) recruitment by the peroxisome proliferator-activated receptor gamma (PPAR gamma): non-selective agonists. [Related pubchem assays (depositor defined):AID1300, AID1808, AID504735, AID631]. Type of assay: protein assay. Background: TR-FRET usually uses a lanthanide donor and a delayed reading to cut background.

For assay [7], the target named is Peroxisome proliferator-activated receptor gamma/Nuclear receptor coactivator 2 (Homo sapiens, UniProt P37231). Kind of assay: TR-FRET dose response biochemical High Throughput Screening assay for agonists of the steroid receptor coactivator 2 (SRC-2) recruitment by the peroxisome proliferator-activated receptor gamma (PPAR gamma): non-selective agonists. [Related pubchem assays: 1297, 1032 ]. Type of assay: functional.

Assay [8] deals with Peroxisome proliferator-activated receptor gamma/Nuclear receptor coactivator 3 (Homo sapiens, UniProt P37231). In words: TR-FRET dose response biochemical High Throughput Screening assay for agonists of the steroid receptor coactivator 3 (SRC-3) recruitment by the peroxisome proliferator-activated receptor gamma (PPAR gamma): non-selective agonists. [Related pubchem assays: 1301 (Confirmation screen.), 1048 (Primary screen.)]. Type of assay: functional.

The nature of assay [9]: Trypanosoma cruzi growth suppression in host cells – NIH3T3 host cells, beta-gal luminescence, confirmation (AID 2044).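 Further: intracellular parasites grown in NIH/3T3 mouse fibroblasts as host cells; luminescent beta-galactosidase reporter signal from transgenic T. cruzi replicating inside host cells; inhibitors lower the luminescence signal.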 Type of assay: functional, cell-based.
Another assay relates to Streptococcus. In words: GAS UMAA2166 growth inhibition – luminescence, BacTiterGlo, counter-screen for streptokinase expression inhibitor project, dose response (AID 1915).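 Further: potency for reduction of bacterial viability or growth.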 Type of assay: functional, organism-based. In general terms: The purpose of a counterscreen is to sort out artefacts and off-target activity.
In the next assay the target is T1, Streptokinase A (Streptococcus pyogenes serotype M1, UniProt P10520).
T1 sequence (P10520 whole entry): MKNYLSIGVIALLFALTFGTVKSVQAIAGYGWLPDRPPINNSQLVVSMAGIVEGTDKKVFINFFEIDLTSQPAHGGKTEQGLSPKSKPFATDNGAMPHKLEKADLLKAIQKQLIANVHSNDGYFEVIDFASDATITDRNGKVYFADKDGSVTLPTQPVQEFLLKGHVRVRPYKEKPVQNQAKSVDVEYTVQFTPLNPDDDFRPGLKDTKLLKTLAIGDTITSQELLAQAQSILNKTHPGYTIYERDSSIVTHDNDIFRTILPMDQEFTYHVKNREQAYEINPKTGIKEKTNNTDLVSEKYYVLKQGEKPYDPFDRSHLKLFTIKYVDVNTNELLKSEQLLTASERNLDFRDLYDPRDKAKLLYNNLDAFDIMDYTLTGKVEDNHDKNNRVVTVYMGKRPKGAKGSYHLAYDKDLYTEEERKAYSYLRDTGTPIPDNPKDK
In words: viability-normalized secreted streptokinase activity reduction – plasminogen activation absorbance, OD405, dose response (AID 1914).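 Further: secreted streptokinase activity via plasminogen activation per viability signal from cell pellet.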 Type of assay: functional, Streptococcus pyogenes M1 GAS.

Assay [10] in a line: NIH3T3 cell viability loss – ATP luminescence, mouse fibroblasts, counter-screen, dose response (AID 2010).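 Further: cells exposed to compound for about 90 hours before reading.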 Type of assay: functional, cell-based.
The target of assay [11] is DNA damage-inducible transcript 3 protein (Mus musculus, UniProt P35639). Type of assay: functional, Cricetulus griseus.
The test system of assay [12] is Streptococcus sp. 'group A'. Kind of assay: Streptococcus pyogenes SK(-)GAS viability under kanamycin – luminescence, BacTiterGlo, confirmation, counter-screen for streptokinase expression inhibitor project, dose response (AID 1900). Type of assay: functional, organism-based.
Assay [13] is described as follows: blockers of HIV-1 ZM109 envelope-driven cell-cell fusion – HeLa effector, CEM target cells, luciferase, cherry-pick, dose response (AID 652058).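 Further: luciferase signal from HIV-1 Env mediated cell-cell fusion of effector and target cells.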 Type of assay: functional, cell-based.
Assay [14] is described as follows: viability loss of HPDE-C7K cells – cell-based, fluorescence, HTS, primary screen (AID 431). Type of assay: functional. Conditions: Homo sapiens.
The nature of assay [15]: microbe, parasite or virus in culture. Type of assay: functional. The settings on record: Mycobacterium tuberculosis.
For a further assay, the target named is Beta-galactosidase (Escherichia coli, UniProt Q8VNN2). Kind of assay: detection-enzyme interference by beta-gal modulators – biochemical, E. coli enzyme, set 3, artefact control for CCR6 antagonist project, dose response (AID 504712). Type of assay: functional.
The target in assay [16] is C-C chemokine receptor type 6 (Homo sapiens, UniProt P51684). In words: antagonism of CCR6 beta-arrestin recruitment – cell-based, luminescent beta-arrestin readout, dose response (AID 504728). Type of assay: functional. In general terms: Arrestin recruitment assays detect the binding of arrestin to an activated receptor.
A short description of assay [17]: HPDE-C7 pancreatic duct cell viability loss – fluorescence, HTS (AID 430). Type of assay: functional, cell-based. Conditions: Homo sapiens.
Assay [18] in a line: Counterscreen for IDE inhibitors: Luminescence-based cell-based high throughput dose response assay to identify compounds that are cytotoxic to HEK cells. [Related pubchem assays: 434962 (Primary screen (IDE inhibitors in singlicate)), 449730 (Counterscreen (Cytotoxicity in triplicate)), 435028 (Confirmation (IDE inhibitors in triplicate)) …. Type of assay: functional. Conditions: HEK293.

The next assay has as its target T2, Insulin-degrading enzyme (Homo sapiens, UniProt P14735).
T2 sequence (P14735 whole entry): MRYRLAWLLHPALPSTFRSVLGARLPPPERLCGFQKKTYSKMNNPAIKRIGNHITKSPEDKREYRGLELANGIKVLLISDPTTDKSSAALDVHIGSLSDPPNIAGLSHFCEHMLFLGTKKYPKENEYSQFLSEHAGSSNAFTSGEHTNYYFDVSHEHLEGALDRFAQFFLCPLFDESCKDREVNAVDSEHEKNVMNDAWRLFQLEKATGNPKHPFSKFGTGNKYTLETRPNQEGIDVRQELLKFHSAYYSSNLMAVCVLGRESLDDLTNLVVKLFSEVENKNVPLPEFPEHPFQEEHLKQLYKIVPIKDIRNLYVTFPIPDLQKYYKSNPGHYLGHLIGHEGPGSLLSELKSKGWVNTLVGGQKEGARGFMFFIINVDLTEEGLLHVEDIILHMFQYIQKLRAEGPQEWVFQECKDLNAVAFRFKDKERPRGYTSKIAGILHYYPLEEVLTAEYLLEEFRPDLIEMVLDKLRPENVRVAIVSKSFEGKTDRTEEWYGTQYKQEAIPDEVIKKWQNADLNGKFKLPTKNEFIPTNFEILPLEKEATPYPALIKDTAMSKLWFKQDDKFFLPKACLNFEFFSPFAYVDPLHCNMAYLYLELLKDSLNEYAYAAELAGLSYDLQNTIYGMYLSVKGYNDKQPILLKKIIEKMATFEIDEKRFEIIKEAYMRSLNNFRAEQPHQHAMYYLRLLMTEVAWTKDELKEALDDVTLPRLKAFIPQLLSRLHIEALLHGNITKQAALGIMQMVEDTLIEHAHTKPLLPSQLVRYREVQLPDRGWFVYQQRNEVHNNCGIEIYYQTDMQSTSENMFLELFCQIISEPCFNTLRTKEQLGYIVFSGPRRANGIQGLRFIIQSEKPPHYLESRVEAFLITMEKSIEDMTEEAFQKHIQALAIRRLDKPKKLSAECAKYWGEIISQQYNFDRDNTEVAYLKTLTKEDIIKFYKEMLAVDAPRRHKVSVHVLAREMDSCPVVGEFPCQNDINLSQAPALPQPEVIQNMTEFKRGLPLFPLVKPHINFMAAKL
In words: Dose Response: Fluorescence polarization-based cell-based high throughput dose response assay for inhibitors of insulin-degrading enzyme (IDE). [Related pubchem assays: 434962 (Primary screen (IDE inhibitors in singlicate)), 449730 (Counterscreen (Cytotoxicity in triplicate)), 435028 (Confirmation (IDE inhibitors in triplicate)), 434984 (Summary …. Type of assay: functional.

Assay [19] can be described thus: viability loss in CEM21 cells – cell-based, CellTiter-Glo luminescence, cherry-picked, cytotoxicity control for viral fusion inhibitor project, dose response (AID 652042).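 Further: potency for signal decrease meaning cytotoxicity.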 Type of assay: functional.
The nature of assay [20]: HIV-1 AD8 envelope cell-cell fusion blockers – cherry-pick, dose response (AID 652062).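 Further: luciferase signal from cell-cell fusion driven by HIV-1 clade B AD8 Env; potency is for inhibitors of fusion seen as a drop in luminescence.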 Type of assay: functional, cell-based.
Assay [21] can be described thus: blockers of HIV-1 envelope-mediated cell-cell fusion – cherry-pick, dose response (AID 652057). Type of assay: functional, cell-based.
Another assay relates to INS1. Kind of assay: INS-1E survival protection against cytokine death – cell-based, luminescence, retest, dose response (AID 449756).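 Further: cell death triggered by IL-1 beta plus TNF-alpha plus IFN-gamma mixture; protective hits raise ATP signal compared with cytokine alone wells.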 Type of assay: functional. Conditions: Rattus norvegicus.

Sequence of Peroxisome proliferator-activated receptor gamma/Nuclear receptor coactivator 3 (P37231 whole entry): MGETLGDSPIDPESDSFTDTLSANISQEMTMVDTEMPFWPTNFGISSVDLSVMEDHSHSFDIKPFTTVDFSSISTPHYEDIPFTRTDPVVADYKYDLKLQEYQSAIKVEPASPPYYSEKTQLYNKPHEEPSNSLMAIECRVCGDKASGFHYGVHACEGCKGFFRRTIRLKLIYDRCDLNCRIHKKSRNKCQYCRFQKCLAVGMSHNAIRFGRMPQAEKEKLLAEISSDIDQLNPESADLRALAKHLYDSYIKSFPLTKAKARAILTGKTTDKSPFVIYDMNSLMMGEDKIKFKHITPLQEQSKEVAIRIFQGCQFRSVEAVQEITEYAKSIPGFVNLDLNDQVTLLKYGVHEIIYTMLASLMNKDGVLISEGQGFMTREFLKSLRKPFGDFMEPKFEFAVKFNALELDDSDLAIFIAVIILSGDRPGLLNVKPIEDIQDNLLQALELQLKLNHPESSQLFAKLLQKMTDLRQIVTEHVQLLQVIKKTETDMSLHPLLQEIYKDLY
Sequence of Peroxisome proliferator-activated receptor gamma/Nuclear receptor coactivator 3 (Q9Y6Q9 whole entry, further chain): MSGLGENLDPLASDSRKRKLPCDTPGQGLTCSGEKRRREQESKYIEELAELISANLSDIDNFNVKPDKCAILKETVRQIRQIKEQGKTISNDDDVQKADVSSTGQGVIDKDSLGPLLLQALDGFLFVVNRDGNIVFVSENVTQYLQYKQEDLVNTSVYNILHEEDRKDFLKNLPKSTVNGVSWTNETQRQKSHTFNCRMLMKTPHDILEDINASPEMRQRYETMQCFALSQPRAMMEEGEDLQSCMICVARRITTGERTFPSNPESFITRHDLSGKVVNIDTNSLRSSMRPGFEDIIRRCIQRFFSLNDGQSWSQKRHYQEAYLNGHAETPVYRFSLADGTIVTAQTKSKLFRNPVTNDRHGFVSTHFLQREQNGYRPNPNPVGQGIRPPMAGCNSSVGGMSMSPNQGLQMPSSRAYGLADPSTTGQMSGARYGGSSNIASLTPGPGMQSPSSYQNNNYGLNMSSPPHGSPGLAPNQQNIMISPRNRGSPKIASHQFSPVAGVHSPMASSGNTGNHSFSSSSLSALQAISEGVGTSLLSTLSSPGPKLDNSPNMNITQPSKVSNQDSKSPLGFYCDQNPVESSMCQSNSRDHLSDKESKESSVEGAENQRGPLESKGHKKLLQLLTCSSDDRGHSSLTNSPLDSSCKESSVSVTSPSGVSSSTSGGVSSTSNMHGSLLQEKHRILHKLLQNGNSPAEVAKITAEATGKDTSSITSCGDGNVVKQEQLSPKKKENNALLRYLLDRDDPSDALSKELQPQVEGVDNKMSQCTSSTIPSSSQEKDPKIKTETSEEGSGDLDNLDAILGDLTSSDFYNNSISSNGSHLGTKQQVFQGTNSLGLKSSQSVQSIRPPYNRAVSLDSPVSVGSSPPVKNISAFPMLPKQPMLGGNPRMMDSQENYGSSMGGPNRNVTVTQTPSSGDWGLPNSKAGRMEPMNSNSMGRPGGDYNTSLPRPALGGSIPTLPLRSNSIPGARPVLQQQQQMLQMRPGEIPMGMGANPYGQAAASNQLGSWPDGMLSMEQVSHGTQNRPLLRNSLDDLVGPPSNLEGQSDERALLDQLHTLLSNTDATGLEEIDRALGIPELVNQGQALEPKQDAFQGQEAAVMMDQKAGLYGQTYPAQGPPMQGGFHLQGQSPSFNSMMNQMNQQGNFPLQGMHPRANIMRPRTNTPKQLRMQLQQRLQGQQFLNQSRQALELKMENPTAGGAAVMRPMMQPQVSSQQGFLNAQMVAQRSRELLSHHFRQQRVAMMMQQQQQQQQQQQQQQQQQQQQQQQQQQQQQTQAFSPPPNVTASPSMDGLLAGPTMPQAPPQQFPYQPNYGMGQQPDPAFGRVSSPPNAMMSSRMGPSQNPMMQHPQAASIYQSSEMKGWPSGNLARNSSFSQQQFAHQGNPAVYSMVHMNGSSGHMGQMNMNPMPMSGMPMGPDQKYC
Sequence of Peroxisome proliferator-activated receptor gamma/Nuclear receptor coactivator 2 (P37231 whole entry): as the sequence (P37231 whole entry) above
Sequence of Peroxisome proliferator-activated receptor gamma/Nuclear receptor coactivator 2 (Q15596 whole entry, further chain): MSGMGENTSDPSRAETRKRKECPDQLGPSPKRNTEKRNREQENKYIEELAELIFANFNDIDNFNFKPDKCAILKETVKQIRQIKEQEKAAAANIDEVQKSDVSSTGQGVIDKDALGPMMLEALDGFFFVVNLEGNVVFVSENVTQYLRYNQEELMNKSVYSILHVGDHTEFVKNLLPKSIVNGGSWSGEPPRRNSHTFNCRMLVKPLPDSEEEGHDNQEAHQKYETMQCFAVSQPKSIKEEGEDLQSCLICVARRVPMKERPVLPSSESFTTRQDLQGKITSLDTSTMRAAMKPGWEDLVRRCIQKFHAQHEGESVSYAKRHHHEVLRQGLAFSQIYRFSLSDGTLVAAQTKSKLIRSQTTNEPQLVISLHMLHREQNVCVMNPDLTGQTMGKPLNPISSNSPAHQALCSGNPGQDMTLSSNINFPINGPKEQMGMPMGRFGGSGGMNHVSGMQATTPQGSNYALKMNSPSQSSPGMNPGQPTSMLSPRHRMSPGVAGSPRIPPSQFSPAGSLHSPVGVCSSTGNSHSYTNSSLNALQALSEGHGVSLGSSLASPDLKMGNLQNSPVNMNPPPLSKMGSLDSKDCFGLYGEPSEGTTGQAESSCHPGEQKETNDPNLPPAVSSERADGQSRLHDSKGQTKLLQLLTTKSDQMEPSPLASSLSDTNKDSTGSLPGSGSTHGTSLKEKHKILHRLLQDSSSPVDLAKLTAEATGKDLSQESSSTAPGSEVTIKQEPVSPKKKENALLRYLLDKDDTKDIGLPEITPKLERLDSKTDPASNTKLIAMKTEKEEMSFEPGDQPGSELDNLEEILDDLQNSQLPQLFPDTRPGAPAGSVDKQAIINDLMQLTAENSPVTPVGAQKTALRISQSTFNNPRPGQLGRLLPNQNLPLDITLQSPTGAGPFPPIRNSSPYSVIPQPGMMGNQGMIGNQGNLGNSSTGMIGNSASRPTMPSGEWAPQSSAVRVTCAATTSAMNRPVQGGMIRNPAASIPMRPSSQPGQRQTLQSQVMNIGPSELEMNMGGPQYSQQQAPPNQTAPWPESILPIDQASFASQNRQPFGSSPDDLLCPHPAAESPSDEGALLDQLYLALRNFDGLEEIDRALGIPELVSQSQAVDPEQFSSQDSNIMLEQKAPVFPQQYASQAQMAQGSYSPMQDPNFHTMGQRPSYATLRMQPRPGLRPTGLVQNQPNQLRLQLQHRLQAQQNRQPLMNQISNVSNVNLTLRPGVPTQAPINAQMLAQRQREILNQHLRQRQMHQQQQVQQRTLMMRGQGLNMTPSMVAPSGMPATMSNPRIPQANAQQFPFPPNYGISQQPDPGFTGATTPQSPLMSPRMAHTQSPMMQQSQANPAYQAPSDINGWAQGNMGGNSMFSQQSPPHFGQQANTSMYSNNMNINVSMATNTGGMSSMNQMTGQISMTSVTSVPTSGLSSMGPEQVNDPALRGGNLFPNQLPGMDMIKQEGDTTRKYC
Sequence of Cysteine protease ATG4B (Q9Y4P1 whole entry): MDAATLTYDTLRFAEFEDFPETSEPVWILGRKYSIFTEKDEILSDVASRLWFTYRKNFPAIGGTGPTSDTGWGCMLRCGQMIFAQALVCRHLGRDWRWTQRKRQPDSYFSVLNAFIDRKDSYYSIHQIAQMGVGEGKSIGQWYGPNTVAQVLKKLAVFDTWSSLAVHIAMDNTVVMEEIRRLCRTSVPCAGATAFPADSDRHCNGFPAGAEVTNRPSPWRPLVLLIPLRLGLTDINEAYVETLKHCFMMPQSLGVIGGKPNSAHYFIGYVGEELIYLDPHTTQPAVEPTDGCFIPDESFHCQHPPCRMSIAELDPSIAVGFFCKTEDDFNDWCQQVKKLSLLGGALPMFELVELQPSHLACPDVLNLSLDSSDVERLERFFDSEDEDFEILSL
Sequence of DNA dC->dU-editing enzyme APOBEC-3A (P31941 whole entry): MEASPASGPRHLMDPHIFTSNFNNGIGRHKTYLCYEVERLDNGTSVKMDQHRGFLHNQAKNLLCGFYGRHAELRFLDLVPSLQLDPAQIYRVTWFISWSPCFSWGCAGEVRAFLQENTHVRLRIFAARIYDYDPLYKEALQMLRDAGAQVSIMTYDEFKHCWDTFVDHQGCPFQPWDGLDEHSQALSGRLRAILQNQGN
Sequence of Phospholipase A2 (P04054 whole entry): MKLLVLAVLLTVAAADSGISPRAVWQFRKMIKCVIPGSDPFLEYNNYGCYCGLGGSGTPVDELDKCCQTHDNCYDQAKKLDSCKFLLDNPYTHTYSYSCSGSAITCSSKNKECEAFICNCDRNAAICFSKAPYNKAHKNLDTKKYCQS
Sequence of DNA dC->dU-editing enzyme APOBEC-3G (Q9HC16 whole entry): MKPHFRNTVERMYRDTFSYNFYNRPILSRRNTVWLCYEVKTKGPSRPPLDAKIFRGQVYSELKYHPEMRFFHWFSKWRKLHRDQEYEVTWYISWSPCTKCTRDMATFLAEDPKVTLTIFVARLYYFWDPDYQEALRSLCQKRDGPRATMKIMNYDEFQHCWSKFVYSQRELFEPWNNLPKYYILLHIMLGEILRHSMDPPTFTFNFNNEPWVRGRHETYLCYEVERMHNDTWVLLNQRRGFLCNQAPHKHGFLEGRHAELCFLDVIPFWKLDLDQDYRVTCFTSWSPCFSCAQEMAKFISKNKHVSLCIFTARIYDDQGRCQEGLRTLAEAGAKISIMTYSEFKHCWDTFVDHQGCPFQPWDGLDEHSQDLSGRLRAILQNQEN

One may read the IC50 as the concentration that gives 50% inhibition. By EC50 is commonly meant the concentration at which the effect is half-maximal. With `CCOC(=O)c1c(-c2ccccc2)oc2cc(Br)c(O)c(C=O)c12`, the values for the IC50 at Cysteine protease ATG4B and on Phospholipase A2 were 9.27 µM (active) and 3.36 µM (active), respectively. Moreover, the 50% effective concentration (EC50) is 4.74 µM (inconclusive) in assay [1] and 2.69 µM (active) in assay [2].

`C=CCn1c(OCc2ccccc2)n[nH]c1=S`: the IC50 in [3] was > 100 µM (inactive); in assay [4] it was 7.3 µM (active).

With `COc1ccccc1NS(=O)(=O)c1cc(NC(=O)c2ccc(Cl)nc2)ccc1N1CCCC1`, the IC50 was > 100 µM (inactive) in [3], > 80 µM (inactive) in assay [5] and 14.3 µM (active) in assay [4].

As to `Cn1c(=O)cc(SCC(=O)N2CCN(c3ccccc3)CC2)c2ccccc21`, the values for the EC50 in assay [6], in assay [7] and in [8] were > 79.4 µM (inactive), 185 µM (not active) and > 79.4 µM (not active), respectively.

Regarding `Cn1c(=O)cc(SCC(=O)N2CCN(c3ccccn3)CC2)c2ccccc21`, the values for the EC50 in [6], in [7] and in [8] were > 79.4 µM (inactive), > 79.4 µM (not active) and > 79.4 µM (not active), respectively.

On to `COc1ccc(-c2nnc(CSc3nc4ccccc4c(=O)n3CC(C)C)o2)cc1OC`, for which the IC50 is 6.22 µM (active) at Cysteine protease ATG4B and 1.19 µM (active) at Phospholipase A2.

In the case of `O=C(Nc1ccccc1-c1nc2ccccc2[nH]1)c1sc2ccccc2c1Cl`, the EC50 in assay [9] was 2.1 µM (active); in the assay with Streptococcus it was > 150 µM (not active); at Streptokinase A it was > 150 µM (not active); in assay [10], > 60 µM (inconclusive); in assay [12], 21.3 µM (active). Besides, the “Absolute IC50 (CHOP)” value in [11] was determined as 10 µM.

As a reminder, the AC50 is the concentration giving half of the maximal activity seen. As for `CCCn1c(Nc2nc3ccccc3n2C)nc2ccccc21`, the AC50 in assay [13] was 8.59 µM (active); in assay [19] it was 8.31 µM (active); in [20] it was 10.4 µM (active); in assay [21], 10.1 µM (active); with INS1 it was 7.73 µM (active). Besides, the EC50 in [14] is 7.01 µM (active); in assay [17], 6.72 µM (active); in [1], > 160 µM (inconclusive); in [2], 1.33 µM (active). Moreover, the CC50 in [15] was 13.4 µM (active). Further, the IC50 at Beta-galactosidase was > 66.6 µM (inactive); in assay [16] it was > 66.6 µM (inactive); in [18] it was 14.4 µM (not active); on Insulin-degrading enzyme, > 55.9 µM (not active).
